# Tested on: Human immunodeficiency virus 1
# Assay: Antiviral activity against CXCR4 tropic HIV1 3B infected in human MAGI-CCR5/CXCR4 cells measured after 2 to 6 days by beta-galactosidase reporter gene assay
# Format: functional, organism-based
# Conditions: Human immunodeficiency virus 1, 3B
row,SMILES,IC50 [nM]
1,NCCCCN(C[C@H]1NCCc2ccccc21)[C@H]1CCCc2cccnc21,450
2,NCCCCN(C[C@@H]1NCCc2ccccc21)[C@H]1CCCc2cccnc21,30000
3,NCCCCN(C[C@H]1CCc2ccccc2N1)[C@H]1CCCc2cccnc21,250
4,NCCCN(C[C@H]1Cc2ccccc2CN1)[C@H]1CCCc2cccnc21,380
5,NCCN(C[C@H]1Cc2ccccc2CN1)[C@H]1CCCc2cccnc21,6200
6,NCCCCCN(C[C@H]1Cc2ccccc2CN1)[C@H]1CCCc2cccnc21,170
7,NCCCCN(C[C@H]1Cc2ccccc2CN1)[C@H]1CCCc2cccnc21,5
8,NCCCCN(C[C@H]1Cc2ccccc2CN1)[C@H]1CCCc2ccccc21,1500
9,NCCCCN(C[C@H]1CCCCN1)[C@H]1CCCc2cccnc21,1120
10,NCCCCN(C[C@@H]1CCc2ccccc2N1)[C@H]1CCCc2cccnc21,30000
11,NCCCCN(C[C@@H]1Cc2ccccc2CN1)[C@H]1CCCc2cccnc21,1400
12,Cc1ccc(-c2ccc3c(c2)C=C(C(=O)Nc2ccc(C[N+](C)(C)C4CCOCC4)cc2)CCC3)cc1,> 10000

# From ChEMBL document CHEMBL4382290, “Tetrahydroisoquinoline CXCR4 Antagonists Adopt a Hybrid Binding Mode within the Peptide Subpocket of the CXCR4 Receptor” (ACS Med Chem Lett, 2019)
